# Literature values as cited in patent US20190135859A1, “METHOD OF MANUFACTURING A PHARMACEUTICAL COMPOSITION” (FERRING B.V., priority 2017, published 2019).
# Starred links: 1 amine or outer side, 2 acyl side, 3 side chain; linkers in the order of their positions; H or OH if unused. Positions of bridges follow the written chain, without caps; N, C: chain ends. Residues, ends and D or L forms follow the SMILES beside them. X1 = O=C(CCC[*:2])[*:1]
# What was measured:
# [1] = test system: human oxytocin (hOT) receptor versus human V2 (hV2) receptor; conditions: ratio of EC50 values; see Table 2 in WO2009/122285
# [2] = test system: Prader-Willi Syndrome patients; conditions: after 15 days, versus placebo treated patients, as described in WO2016/044131
Structure (SMILES),hV2/hOT selectivity ratio (EC50 hV2/EC50 hOT) [1],"improvement over placebo in measurements of hyperphagia, obsessive compulsive disorder, food seeking behaviour and clinical global impression [2]"
"CC[C@H](C)[C@@H]1NC(=O)[C@H](Cc2ccc(OC)cc2)NC(=O)CCCSC[C@@H](C(=O)N2CCC[C@H]2C(=O)N[C@@H](CC(C)C)C(=O)NCC(N)=O)NC(=O)[C@H](CC(N)=O)NC(=O)[C@H](CCC(N)=O)NC1=O [carbetocin, (1-desamino-1-monocarba-2(O-methyl)-tyrosine)oxytocin] (Y(Me)IQNCPLG-NH2; linker N-5 via X1)",244,statistically significant improvement
"CC[C@H](C)[C@@H]1NC(=O)[C@H](Cc2ccc(O)cc2)NC(=O)[C@@H](N)CSSC[C@@H](C(=O)N2CCC[C@H]2C(=O)N[C@@H](CC(C)C)C(=O)NCC(N)=O)NC(=O)[C@H](CC(N)=O)NC(=O)[C@H](CCC(N)=O)NC1=O [Oxytocin, oxytocin]",3,–
